{"source": "patent US12239134B2", "about": "“Plant antimicrobial compositions including an emulsifier and/or ozone and methods of use” (Arizona Board of Regents on Behalf of The University of …, priority 2018, dated 2025)", "key": {"[1]": {"system": "Salmonella enterica serovar Newport SN78", "assay": "Ozone-plant antimicrobial wash of inoculated iceberg lettuce leaves", "format": "cell-based", "conditions": "ozonated wash", "experimental": "Bacterial culture: Salmonella enterica serovar Newport SN78 (bovine isolate; provided by Dr. Marilyn Erickson, University of Georgia, Griffin, GA) was used for this experiment. Dual antibiotic resistance (100 μg/ml ampicillin and 25 μg/ml streptomycin, Amresco, Solon, OH) was developed in the strain through incremental antibiotic exposure. […] The frozen stock culture was initially revived through two transfers into brain heart infusion broth (BHIB) (Becton, Dickinson and Co (BD), Sparks, MD) followed by isolation on xylose lysine desoxycholate (XLD) agar (Becton, Dickinson and Co (BD), Sparks, MD) containing 100 μg/ml ampicillin and 25 μg/ml streptomycin.\nInoculum Preparation: For each experiment, a 20 hour overnight culture was prepared by inoculating 100 μl of the culture in 30 ml of tryptic soy broth (TSB) containing 100 μg/ml ampicillin and 25 μg/ml streptomycin and incubating at 37° C. in a desktop orbital shaker at 200 rpm (MaxQ 4450, Thermo Scientific, Dubuque, IA, USA). The cells in the medium were pelleted by centrifugation at 4000 g (Eppendorf Model 5810, Hamburg, Germany) and the supernatant was discarded. […]. The four outer leaves of the iceberg lettuce were removed and discarded. Whole leaf samples (10 g±0.5 g each) were used. The iceberg lettuce samples were inoculated by immersing 10 g portions into the PBS-S. Newport suspension for 2 minutes. After immersion, the excess culture suspension was allowed to drain from the leaf and the leaves were allowed to dry in a biohood for 1 hour to aid in the attachment of S. Newport to the leaf surface.\nAntimicrobial wash solution preparation: The test plant-based antimicrobials used in this study consisted of oregano oil made from pure Origanum vulgare (Lhasa Karnak Company, Berkeley, California), its active component carvacrol (98% pure, molecular weight 150.2, CAS no. 499-75-2, Sigma, St. Louis, MO), olive extract (CreAgri, Hayward, CA), and quillaja saponin made from Quillaja saponaria (Sigma Aldrich, St. Louis, MO). […]"}, "[2]": {"system": "mesophilic and psychrotrophic bacteria", "conditions": "3 minutes (Kim et al. 1999); cited from earlier work"}, "total plate counts": {"system": "total plate counts", "conditions": "Wang et al. 2004; cited from earlier work"}}}
{"smiles": "O=[O+][O-]", "note": "[ozonized water, ozone]", "values": [{"measurement": "reduction in S. Newport population on iceberg lettuce leaves", "setting": "[1]; 60 min", "result": "1.76±0.27", "unit": "log CFU/g"}, {"measurement": "reduction in S. Newport population on iceberg lettuce leaves", "setting": "[1]; 90 min", "result": "1.67±0.28", "unit": "log CFU/g"}, {"measurement": "reduction in S. Newport population on iceberg lettuce leaves", "setting": "[1]; 120 min", "result": "2.09±0.54", "unit": "log CFU/g"}, {"measurement": "decreased counts of mesophilic bacteria on shredded lettuce", "setting": "[2]", "result": 1.4, "unit": "log CFU/g"}, {"measurement": "decreased counts of psychrotrophic bacteria on shredded lettuce", "setting": "[2]", "result": 1.8, "unit": "log CFU/g"}, {"measurement": "total plate counts on cilantro leaves after treatment", "setting": "total plate counts", "result": "did not decrease total plate counts"}]}
